Source: PubChem BioAssay AID1963865 (Molecular Pharmacology Branch, DTP, NCI, 2024)

System: KRAS PDC multicell spheroid viability
Assay: Anticancer human tumor 825966-067-R-J1-PDC patient-derived colon carcinoma cell line growth inhibition [KRAS2]
Conditions: for IC50: curve of first compound; for viability, T/C: stronger effect = lower value; active = viability on the fitted dose curve at most 10% of control; inactive = the rest
Text: Multicellular complex tumor spheroid response to RAS pathway inhibitors in combination with a targeted agents in patient-derived cell lines with oncogenic KRAS variants from multiple cancer types
A high-throughput screen of multi-cell type tumor spheroids was designed to identify active combinations of targeted small molecules and KRAS pathway inhibitors. Complex spheroids include a stromal component modeled by human endothelial cells (HUVEC) and fibroblasts modeled by human mesenchymal stem cells (MSCs). The concentration ranges selected for each drug and investigational agent were based upon clinically achievable concentrations if the clinical Cmax of the agent was known.
Compounds. The drugs and investigational agents: BI-3406 (NSC825286), BAY-293 (NSC824723), batoprotafib (TNO155; NSC825523), sotorasib (AMG 510; NSC818433), MRTX1257 (NSC819558), elimusertib (BAY 1895344; NSC800525), molibresib (GSK525762; NSC774829), temuterkib (LY3214996; NSC803410), venetoclax (NSC766270), alisertib (NSC759677), olaparib (NSC753686), talazoparib (NSC767125), erdafitinib (NSC781556), ipatasertib (NSC767898), cabozantinib (NSC761068), nintedanib (NSC756659), abemaciclib (NSC768073), docetaxel (NSC628503), trametinib (NSC758246), and sapanisertib (NSC764658) were obtained from the National Cancer Institute (NCI) Developmental Therapeutics Program Chemical Repository. The FDA-approved anticancer drug set is available from the Developmental Therapeutics Program. […] The stock solutions were prepared in dimethyl sulfoxide (DMSO, Sigma-Aldrich, St. Louis, MO, cat. D2650) at 800-fold the tested concentration and stored at -70 degrees C prior to their use. All drugs and investigational agents were tested over a range starting from a high concentration at or near the clinical Cmax and decreasing in half-log increments. If the clinical Cmax for an agent had not been determined, the highest concentration tested was 10 microM.
Cell Culture. All cells were maintained in an incubator at 37 degrees C and 5% CO2 with 95% humidity. The PDC lines were cultured according to standard operating procedures established by the NCI PDMR (https://pdmr.cancer.gov/sops/default.htm). Briefly, all PDCs were thawed and cultured in Matrigel-coated flasks prepared with a working solution of 1X Ham's F-12 nutrient mix, without supplementation (Invitrogen, Waltham, MA, cat. 11765054), 100 U/mL penicillin-streptomycin (Invitrogen, cat. 15140122), and 2.5% Matrigel (Corning Inc., Corning, NY, cat. 354248) for the first three passages. All PDCs were cultured in complete DMEM/F-12 media containing advanced DMEM/F-12 (Invitrogen, cat. 12634028), 4.9% defined fetal bovine serum, heat inactivated (HyClone Laboratories Inc., Logan, UT, cat. SH30070.03HI), 389 ng/mL hydrocortisone (Sigma-Aldrich, cat. H4001), 9.7 ng/mL human EGF recombinant protein (Invitrogen, cat. PHG0313), 23.4 microg/mL adenine (Sigma-Aldrich, cat. A2786), 97.3 U/mL penicillin-streptomycin (Invitrogen, cat. 15140122), 1.9 mM L-glutamine (Invitrogen, cat. 25030081), and 9.7 microM Y-27632 dihydrochloride (Tocris Bioscience, Bristol, United Kingdom, cat. 1254). The PDCs were cultured in complete DMEM/F12 media without 9.7 microM Y-27632 dihydrochloride for at least two passages prior to the screen. The established cell line HOP-62 was cultured in RPMI 1640 medium, HEPES (Invitrogen, cat. 22400105) with 10% defined fetal bovine serum (HyClone Laboratories Inc., cat. SH30070.03) and 2 mM L-glutamine (Invitrogen, cat. 25030081). The pooled donor HUVEC were cultured in endothelial cell growth medium 2 (PromoCell, Heidelberg, Germany, cat. C-22011) and the hMSC were cultured in mesenchymal stem cell growth medium 2 (PromoCell, cat. C-28009). For all experiments, HUVEC and hMSC were used at passages </=5, while the malignant cell lines were used at passages </=15. […]

[1] = second compound 0.1 µM, first compound 0.000316 µM
[2] = second compound 0.1 µM, first compound 0.001 µM
[3] = second compound 0.1 µM, first compound 0.00316 µM
[4] = second compound 0.1 µM, first compound 0.01 µM
[5] = second compound 0.1 µM, first compound 0.0316 µM
[6] = second compound 0.316 µM, first compound 0.000316 µM
[7] = second compound 0.316 µM, first compound 0.001 µM
[8] = second compound 0.316 µM, first compound 0.00316 µM
[9] = second compound 0.316 µM, first compound 0.01 µM
[10] = second compound 0.316 µM, first compound 0.0316 µM
[11] = second compound 1 µM, first compound 0.000316 µM
[12] = second compound 1 µM, first compound 0.001 µM
[13] = second compound 1 µM, first compound 0.00316 µM
[14] = second compound 1 µM, first compound 0.01 µM
[15] = second compound 1 µM, first compound 0.0316 µM
[16] = second compound 3.16 µM, first compound 0.000316 µM
[17] = second compound 3.16 µM, first compound 0.001 µM
[18] = second compound 3.16 µM, first compound 0.00316 µM
[19] = second compound 3.16 µM, first compound 0.01 µM
[20] = second compound 3.16 µM, first compound 0.0316 µM
[21] = second compound 10 µM, first compound 0.000316 µM
[22] = second compound 10 µM, first compound 0.001 µM
[23] = second compound 10 µM, first compound 0.00316 µM
[24] = second compound 10 µM, first compound 0.01 µM
[25] = second compound 10 µM, first compound 0.0316 µM
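Also: spheroids exposed to compounds for 7 days.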

CC(=O)Nc1cccc(-n2c(=O)n(C3CC3)c(=O)c3c(Nc4ccc(I)cc4F)n(C)c(=O)c(C)c32)c1 + C=CC(=O)N1CCN(c2nc(=O)n(-c3c(C)ccnc3C(C)C)c3nc(-c4c(O)cccc4F)c(F)cc23)C(C)C1
27.5 nM: IC50 (second compound 3.16 µM)
14.1 nM: IC50 (second compound 10 µM)
> 31.6 nM: IC50 (second compound 1 µM)
17 nM: IC50 (second compound 0.1 µM)
22.8 nM: IC50 (second compound 0.316 µM)
inactive: viability, T/C (second compound 0.1 µM, first compound 0.0001 µM) 91.9% | viability, T/C [1] 84.9% | viability, T/C [2] 99.5% | viability, T/C [3] 128% | viability, T/C [4] 72.5% | viability, T/C [5] 23.7% | viability, T/C (second compound 0.316 µM, first compound 0.0001 µM) 84.8% | viability, T/C [6] 82.7% | viability, T/C [7] 111% | viability, T/C [8] 129% | viability, T/C [9] 95.6% | viability, T/C [10] 31.8% | viability, T/C (second compound 1 µM, first compound 0.0001 µM) 92.2% | viability, T/C [11] 89.4% | viability, T/C [12] 99.8% | viability, T/C [13] 114% | viability, T/C [14] 102% | viability, T/C [15] 52.5% | viability, T/C (second compound 3.16 µM, first compound 0.0001 µM) 72.2% | viability, T/C [16] 97.7% | viability, T/C [17] 95.4% | viability, T/C [18] 97.3% | viability, T/C [19] 80.2% | viability, T/C [20] 45.9% | viability, T/C (second compound 10 µM, first compound 0.0001 µM) 81.3% | viability, T/C [21] 89.5% | viability, T/C [22] 77.3% | viability, T/C [23] 101% | viability, T/C [24] 55.2% | viability, T/C [25] 37.6%

CC(C)n1nc(-c2ccc3oc(N)nc3c2)c2c(N)ncnc21 + C=CC(=O)N1CCN(c2nc(=O)n(-c3c(C)ccnc3C(C)C)c3nc(-c4c(O)cccc4F)c(F)cc23)C(C)C1
> 100 nM: IC50 (second compound 0.1 µM) | IC50 (second compound 0.316 µM) | IC50 (second compound 1 µM) | IC50 (second compound 3.16 µM) | IC50 (second compound 10 µM)
inactive: viability, T/C [1] 113% | viability, T/C [2] 116% | viability, T/C [3] 114% | viability, T/C [4] 147% | viability, T/C [5] 130% | viability, T/C (second compound 0.1 µM, first compound 0.1 µM) 142% | viability, T/C [6] 112% | viability, T/C [7] 96.7% | viability, T/C [8] 118% | viability, T/C [9] 130% | viability, T/C [10] 154% | viability, T/C (second compound 0.316 µM, first compound 0.1 µM) 101% | viability, T/C [11] 106% | viability, T/C [12] 102% | viability, T/C [13] 129% | viability, T/C [14] 138% | viability, T/C [15] 89.9% | viability, T/C (second compound 1 µM, first compound 0.1 µM) 107% | viability, T/C [16] 103% | viability, T/C [17] 99.5% | viability, T/C [18] 103% | viability, T/C [19] 119% | viability, T/C [20] 114% | viability, T/C (second compound 3.16 µM, first compound 0.1 µM) 114% | viability, T/C [21] 89.6% | viability, T/C [22] 94.7% | viability, T/C [23] 106% | viability, T/C [24] 93.5% | viability, T/C [25] 79.4% | viability, T/C (second compound 10 µM, first compound 0.1 µM) 76.5%
